Laboratory results: ChEMBL document CHEMBL5465560, “Selectivity Literature for EUbOPEN Chemogenomic Library” (2024)

Experiments:
[1] = biological target: T1, Serine/threonine-protein kinase Nek11 (Homo sapiens) (UniProt Q8NG66); assay: Selectivity interaction (KinomeScan (DiscoverX)) EUB0000666a NEK11; settings: at 10 µM
T1 sequence (whole entry): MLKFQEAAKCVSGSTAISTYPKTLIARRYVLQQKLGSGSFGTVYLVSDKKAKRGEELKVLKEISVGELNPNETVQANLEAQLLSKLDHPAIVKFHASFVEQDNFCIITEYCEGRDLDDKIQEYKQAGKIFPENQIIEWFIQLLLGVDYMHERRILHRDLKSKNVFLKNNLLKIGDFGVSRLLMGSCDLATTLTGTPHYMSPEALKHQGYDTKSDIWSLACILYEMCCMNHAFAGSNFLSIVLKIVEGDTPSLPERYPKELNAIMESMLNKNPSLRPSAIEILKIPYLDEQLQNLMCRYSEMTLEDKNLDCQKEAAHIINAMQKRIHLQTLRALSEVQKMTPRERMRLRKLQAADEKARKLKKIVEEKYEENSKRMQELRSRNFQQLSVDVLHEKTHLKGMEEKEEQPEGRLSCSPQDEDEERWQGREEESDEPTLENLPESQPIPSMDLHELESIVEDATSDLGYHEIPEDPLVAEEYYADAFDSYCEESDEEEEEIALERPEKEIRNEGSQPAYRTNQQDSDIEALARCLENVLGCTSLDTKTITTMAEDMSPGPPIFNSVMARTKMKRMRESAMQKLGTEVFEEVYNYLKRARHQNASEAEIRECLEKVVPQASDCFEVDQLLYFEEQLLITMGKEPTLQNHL

[2] = biological target: Serine/threonine-protein kinase pim-3 (Homo sapiens) (UniProt Q86V86); assay: Selectivity interaction (KinomeScan (DiscoverX)) EUB0000666a PIM3; settings: at 10 µM
[3] = biological target: Endothelin-1 receptor (Homo sapiens, UniProt P25101); assay: Selectivity interaction (Endothelin A receptor binding assay, human recombinant ) EUB0000877a EDNRA
Endothelin-1 receptor, sequence (P25101 whole entry): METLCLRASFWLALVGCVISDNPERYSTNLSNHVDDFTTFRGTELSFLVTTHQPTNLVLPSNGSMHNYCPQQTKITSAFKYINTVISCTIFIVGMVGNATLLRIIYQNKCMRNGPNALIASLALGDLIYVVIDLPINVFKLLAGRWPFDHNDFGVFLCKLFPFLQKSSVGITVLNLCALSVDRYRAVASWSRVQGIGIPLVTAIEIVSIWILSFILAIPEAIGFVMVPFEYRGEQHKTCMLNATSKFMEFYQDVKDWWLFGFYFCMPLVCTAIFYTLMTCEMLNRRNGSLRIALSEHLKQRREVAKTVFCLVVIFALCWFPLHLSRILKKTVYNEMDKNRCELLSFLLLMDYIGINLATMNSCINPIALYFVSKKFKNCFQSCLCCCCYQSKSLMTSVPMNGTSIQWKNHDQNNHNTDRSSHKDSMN

[4] = biological target: Serine/threonine-protein kinase haspin (Homo sapiens, UniProt Q8TF76); assay: Selectivity interaction (Enzymatic assay) EUB0001550a GSG2
Serine/threonine-protein kinase haspin, sequence (Q8TF76 whole entry): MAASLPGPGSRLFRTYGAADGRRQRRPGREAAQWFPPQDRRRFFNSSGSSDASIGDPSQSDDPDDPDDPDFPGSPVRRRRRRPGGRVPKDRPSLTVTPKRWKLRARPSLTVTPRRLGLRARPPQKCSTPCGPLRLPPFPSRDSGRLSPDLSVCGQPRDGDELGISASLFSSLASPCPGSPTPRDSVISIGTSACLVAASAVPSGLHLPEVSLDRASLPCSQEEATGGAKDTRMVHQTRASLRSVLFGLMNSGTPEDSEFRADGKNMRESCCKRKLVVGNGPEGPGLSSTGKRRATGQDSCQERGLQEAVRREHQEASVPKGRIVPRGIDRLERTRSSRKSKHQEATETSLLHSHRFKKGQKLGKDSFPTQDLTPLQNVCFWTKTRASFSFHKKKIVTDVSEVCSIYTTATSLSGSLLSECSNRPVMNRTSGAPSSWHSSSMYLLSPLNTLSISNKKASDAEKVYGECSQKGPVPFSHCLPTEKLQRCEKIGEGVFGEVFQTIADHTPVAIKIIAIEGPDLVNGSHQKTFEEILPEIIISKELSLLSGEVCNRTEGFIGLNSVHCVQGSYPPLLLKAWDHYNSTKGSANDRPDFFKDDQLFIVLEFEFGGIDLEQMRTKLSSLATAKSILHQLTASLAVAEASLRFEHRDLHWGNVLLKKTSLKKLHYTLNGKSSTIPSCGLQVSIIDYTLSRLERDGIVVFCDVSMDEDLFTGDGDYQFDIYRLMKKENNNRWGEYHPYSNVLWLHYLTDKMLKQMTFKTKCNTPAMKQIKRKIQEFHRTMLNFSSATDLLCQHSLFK

[5] = biological target: Fibroblast growth factor receptor 1 (Homo sapiens, UniProt P11362); settings: at 10 µM
Fibroblast growth factor receptor 1, sequence (P11362 22-822 limits assumed): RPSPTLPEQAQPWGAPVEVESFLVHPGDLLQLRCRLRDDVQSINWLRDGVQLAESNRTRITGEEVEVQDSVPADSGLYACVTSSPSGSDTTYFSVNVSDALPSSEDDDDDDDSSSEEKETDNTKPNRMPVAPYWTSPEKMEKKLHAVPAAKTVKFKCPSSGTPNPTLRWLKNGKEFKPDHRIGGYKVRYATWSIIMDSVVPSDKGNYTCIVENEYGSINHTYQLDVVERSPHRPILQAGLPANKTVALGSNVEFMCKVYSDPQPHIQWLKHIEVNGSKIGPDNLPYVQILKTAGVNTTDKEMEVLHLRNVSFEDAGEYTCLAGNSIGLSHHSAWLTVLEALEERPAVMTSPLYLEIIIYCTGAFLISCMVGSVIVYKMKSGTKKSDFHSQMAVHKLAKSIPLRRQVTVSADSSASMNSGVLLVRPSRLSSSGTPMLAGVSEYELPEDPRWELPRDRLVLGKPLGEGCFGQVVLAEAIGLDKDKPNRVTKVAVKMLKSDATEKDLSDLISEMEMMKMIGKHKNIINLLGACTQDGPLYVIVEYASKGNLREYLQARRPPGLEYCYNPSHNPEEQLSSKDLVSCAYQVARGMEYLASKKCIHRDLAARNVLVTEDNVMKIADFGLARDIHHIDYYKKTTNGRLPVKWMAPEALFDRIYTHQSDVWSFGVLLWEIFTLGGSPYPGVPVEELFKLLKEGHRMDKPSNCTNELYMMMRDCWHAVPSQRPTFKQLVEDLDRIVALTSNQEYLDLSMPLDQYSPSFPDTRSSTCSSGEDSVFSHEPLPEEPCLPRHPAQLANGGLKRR

[6] = biological target: T2, Muscle, skeletal receptor tyrosine-protein kinase (Homo sapiens) (UniProt O15146); assay: Selectivity interaction (KinomeScan (DiscoverX)) EUB0000595a MUSK; settings: at 10 µM
T2 sequence (whole entry): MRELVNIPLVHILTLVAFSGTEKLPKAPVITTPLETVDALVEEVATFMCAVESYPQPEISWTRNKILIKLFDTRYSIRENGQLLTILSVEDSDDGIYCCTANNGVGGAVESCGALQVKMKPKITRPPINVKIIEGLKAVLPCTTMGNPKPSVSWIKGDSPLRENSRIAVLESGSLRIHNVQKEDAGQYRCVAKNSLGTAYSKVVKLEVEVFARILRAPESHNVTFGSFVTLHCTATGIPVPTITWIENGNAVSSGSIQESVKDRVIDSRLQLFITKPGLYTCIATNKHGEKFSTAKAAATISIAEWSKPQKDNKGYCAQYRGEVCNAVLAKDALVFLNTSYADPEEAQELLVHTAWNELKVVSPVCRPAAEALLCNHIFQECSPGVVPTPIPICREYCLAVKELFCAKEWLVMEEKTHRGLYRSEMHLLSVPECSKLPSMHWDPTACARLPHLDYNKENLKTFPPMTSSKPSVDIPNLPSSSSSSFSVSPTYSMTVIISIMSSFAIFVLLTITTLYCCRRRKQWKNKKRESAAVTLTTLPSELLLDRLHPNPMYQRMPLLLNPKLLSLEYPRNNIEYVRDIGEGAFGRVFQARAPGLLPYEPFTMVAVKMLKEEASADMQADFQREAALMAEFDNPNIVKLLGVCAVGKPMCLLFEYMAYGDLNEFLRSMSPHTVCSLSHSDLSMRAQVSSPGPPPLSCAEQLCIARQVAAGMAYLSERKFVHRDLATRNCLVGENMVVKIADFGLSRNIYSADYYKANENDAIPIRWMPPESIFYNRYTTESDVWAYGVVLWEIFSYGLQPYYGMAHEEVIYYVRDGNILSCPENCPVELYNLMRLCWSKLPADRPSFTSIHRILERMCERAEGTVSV

[7] = biological target: T3, Serine/threonine-protein kinase tousled-like 1 (Homo sapiens) (UniProt Q9UKI8); assay: Selectivity interaction (KinomeScan (DiscoverX)) EUB0000618a TLK1; settings: at 10 µM
T3 sequence (whole entry): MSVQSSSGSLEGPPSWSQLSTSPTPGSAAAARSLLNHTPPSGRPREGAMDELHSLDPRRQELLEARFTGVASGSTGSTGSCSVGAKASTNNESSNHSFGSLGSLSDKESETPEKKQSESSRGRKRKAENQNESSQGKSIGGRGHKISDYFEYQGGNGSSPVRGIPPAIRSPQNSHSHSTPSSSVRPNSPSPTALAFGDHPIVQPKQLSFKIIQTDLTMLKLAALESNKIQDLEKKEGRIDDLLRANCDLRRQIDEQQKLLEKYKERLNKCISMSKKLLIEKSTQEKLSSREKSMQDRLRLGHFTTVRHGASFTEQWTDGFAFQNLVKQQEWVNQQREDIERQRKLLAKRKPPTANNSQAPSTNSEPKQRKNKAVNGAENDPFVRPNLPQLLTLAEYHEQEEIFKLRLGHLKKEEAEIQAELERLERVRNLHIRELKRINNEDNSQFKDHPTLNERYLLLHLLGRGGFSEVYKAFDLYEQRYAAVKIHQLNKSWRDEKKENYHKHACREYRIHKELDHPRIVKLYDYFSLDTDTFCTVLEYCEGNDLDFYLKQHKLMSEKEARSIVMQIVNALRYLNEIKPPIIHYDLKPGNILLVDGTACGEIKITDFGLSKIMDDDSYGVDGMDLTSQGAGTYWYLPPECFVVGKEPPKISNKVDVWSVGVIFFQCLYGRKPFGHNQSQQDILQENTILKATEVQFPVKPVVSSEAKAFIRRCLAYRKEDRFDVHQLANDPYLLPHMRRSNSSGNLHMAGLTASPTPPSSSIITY

[8] = biological target: Receptor tyrosine-protein kinase erbB-3 (Homo sapiens) (UniProt P21860); assay: Selectivity interaction (KinomeScan (DiscoverX)) EUB0000655a ERBB3; settings: at 10 µM
Receptor tyrosine-protein kinase erbB-3 (Homo sapiens), sequence (P21860 whole entry): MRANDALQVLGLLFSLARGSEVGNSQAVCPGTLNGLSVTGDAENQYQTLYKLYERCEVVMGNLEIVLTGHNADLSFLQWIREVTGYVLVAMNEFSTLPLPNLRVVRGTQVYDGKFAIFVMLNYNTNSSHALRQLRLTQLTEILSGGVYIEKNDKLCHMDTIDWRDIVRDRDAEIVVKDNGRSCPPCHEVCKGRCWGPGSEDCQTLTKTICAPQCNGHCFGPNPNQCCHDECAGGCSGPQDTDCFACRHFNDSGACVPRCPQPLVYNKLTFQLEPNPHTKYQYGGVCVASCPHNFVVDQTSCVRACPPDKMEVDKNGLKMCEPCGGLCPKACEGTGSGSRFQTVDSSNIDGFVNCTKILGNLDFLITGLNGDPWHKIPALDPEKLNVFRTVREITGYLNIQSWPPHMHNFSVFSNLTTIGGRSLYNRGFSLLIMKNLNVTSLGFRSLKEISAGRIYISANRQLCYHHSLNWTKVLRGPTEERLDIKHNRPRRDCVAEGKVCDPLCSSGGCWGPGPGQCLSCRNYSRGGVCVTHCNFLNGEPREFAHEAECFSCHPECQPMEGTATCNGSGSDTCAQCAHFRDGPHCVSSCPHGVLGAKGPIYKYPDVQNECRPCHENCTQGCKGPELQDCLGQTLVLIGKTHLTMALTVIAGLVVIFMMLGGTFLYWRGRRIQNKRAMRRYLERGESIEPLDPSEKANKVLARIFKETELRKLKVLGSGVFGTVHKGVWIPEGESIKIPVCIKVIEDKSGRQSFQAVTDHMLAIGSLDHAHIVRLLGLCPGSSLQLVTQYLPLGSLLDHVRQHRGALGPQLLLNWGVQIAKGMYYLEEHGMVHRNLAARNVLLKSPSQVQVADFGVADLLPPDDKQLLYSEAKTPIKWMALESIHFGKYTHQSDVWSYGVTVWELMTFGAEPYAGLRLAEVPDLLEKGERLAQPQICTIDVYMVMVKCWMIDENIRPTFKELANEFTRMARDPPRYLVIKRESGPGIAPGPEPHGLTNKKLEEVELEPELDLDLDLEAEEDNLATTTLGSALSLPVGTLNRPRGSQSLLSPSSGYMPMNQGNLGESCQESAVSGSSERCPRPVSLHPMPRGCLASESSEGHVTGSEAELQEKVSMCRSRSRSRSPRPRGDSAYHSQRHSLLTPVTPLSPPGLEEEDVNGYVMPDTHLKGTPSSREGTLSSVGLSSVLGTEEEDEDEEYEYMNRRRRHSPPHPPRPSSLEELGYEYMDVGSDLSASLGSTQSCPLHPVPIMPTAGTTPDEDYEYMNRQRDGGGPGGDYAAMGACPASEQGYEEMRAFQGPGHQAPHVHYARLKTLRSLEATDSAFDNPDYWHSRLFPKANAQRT

[9] = biological target: Aurora kinase B (Homo sapiens, UniProt Q96GD4); assay: Selectivity interaction (SelectScreen profiling (Invitrogen)) EUB0000607a AURKB; settings: at 2 µM
Aurora kinase B, sequence (Q96GD4 whole entry): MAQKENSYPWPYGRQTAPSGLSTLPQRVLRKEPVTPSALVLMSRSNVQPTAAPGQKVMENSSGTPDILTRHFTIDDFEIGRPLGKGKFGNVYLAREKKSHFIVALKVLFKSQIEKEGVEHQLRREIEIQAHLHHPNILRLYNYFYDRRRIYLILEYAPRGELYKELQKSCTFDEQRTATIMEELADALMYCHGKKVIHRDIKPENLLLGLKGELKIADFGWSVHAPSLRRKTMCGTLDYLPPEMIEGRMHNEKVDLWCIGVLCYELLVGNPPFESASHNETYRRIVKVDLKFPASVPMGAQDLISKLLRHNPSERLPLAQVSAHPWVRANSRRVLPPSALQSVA

[10] = biological target: Serine/threonine-protein kinase N2 (Homo sapiens, UniProt Q16513); assay: Selectivity interaction (LanthaScreen Eu Kinase Binding Assay) EUB0001632a PKN2; settings: at 10 µM
[11] = biological target: Mitogen-activated protein kinase kinase kinase 10 (Homo sapiens) (UniProt Q02779); assay: Selectivity interaction (ProQinase) EUB0000171b MAP3K10
Mitogen-activated protein kinase kinase kinase 10 (Homo sapiens), sequence (Q02779 whole entry, looked up): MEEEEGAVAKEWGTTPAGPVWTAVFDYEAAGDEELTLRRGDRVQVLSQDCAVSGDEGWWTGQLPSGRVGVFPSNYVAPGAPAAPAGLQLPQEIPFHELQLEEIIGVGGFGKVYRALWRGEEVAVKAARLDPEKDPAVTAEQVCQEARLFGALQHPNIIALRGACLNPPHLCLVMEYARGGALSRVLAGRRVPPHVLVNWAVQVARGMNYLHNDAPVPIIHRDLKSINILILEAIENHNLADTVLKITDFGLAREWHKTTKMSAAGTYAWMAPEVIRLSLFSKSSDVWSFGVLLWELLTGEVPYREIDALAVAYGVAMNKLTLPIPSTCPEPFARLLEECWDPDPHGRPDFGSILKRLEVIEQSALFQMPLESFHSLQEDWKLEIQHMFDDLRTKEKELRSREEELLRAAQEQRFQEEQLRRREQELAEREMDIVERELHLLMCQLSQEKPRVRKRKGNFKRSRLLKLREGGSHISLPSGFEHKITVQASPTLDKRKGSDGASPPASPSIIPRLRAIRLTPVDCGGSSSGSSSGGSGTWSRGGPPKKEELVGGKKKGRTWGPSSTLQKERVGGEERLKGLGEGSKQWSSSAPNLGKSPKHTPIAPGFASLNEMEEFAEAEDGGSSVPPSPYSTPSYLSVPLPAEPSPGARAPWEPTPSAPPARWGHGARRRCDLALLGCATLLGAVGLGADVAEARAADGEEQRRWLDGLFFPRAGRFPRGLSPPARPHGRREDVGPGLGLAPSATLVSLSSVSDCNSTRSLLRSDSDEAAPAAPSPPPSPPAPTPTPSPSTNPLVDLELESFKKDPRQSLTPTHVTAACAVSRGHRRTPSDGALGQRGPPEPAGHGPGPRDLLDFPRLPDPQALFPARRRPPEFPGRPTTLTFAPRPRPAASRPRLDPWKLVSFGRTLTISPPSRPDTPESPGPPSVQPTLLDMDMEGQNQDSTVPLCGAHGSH

SMILES: O=C(NOC[C@H](O)CO)c1ccc(F)c(F)c1Nc1ccc(I)cc1F
- % of control [1]: 91%
- % of control [2]: 100%

SMILES: CCC(=O)N1CC[C@H](Nc2ncnc3c2CN(c2cnc(OC)c(C(F)(F)F)c2)CC3)C1 [LENIOLISIB]
- IC50 [3]: > 30 µM

SMILES: CN(C)CC#Cc1ccc2[nH]c3c(c2c1)-c1nc(N)ncc1CCC3
- IC50 [4]: 1.4 µM

SMILES: CCN(CC)CCCCNc1ncc2cc(-c3cc(OC)cc(OC)c3)c(NC(=O)NC(C)(C)C)nc2n1
- % of control [5]: 0.4%

SMILES: COCC(=O)NC/C=C/c1ccc2ncnc(Nc3ccc(Oc4ccc(C)nc4)c(C)c3)c2c1 [CP-724714]
- % of control [6]: 100%

SMILES: O[C@H]1CC[C@H](Nc2ncc3nc(Nc4c(F)cc(F)cc4F)n([C@H]4CCOC4)c3n2)CC1
- % of control [7]: 50%

SMILES: CN(C)CCOc1ccc(-c2nc(-c3ccncc3)c(-c3ccc4c(c3)CC/C4=N\O)[nH]2)cc1
- % of control [8]: 0.7%

SMILES: CNC(=O)Nc1ccc(-c2nc(N3CC4CCC(C3)O4)c3cnn(C4CCC5(CC4)OCCO5)c3n2)cc1
- % of inhibition [9]: 3%

SMILES: Cn1cc(-n2cnc3c(NCc4nc5cc(Cl)c(Cl)cc5[nH]4)nc(N4CCOCC4)nc32)cn1
- % of inhibition [10]: -5.46%

SMILES: C=CC(=O)Nc1cccc(C(=O)Nc2ccc(Nc3cc(-c4[nH]c(SC)nc4C)ccn3)cc2)c1
- % of control ([11]; at 1 µM): 27%
- % of control ([11]; at 5 µM): 4%
